{
  "source": "patent US20060293228A1",
  "about": "“Therapeutic compositions and methods using transforming growth factor-beta mimics” (priority 2005, published 2006)",
  "key": {"insect bite": {"tested_on": "insect bite", "design": "species or system human", "conditions": "in vivo", "source_text": "A person reported that they were very allergic to insect bites, which usually made a large red welt, then turned purple and looked like a severe bruise, lasting for about a week."}, "[1]": {"tested_on": "contact dermatitis on both hands", "design": "species or system human", "conditions": "in vivo", "source_text": "A person had suffered from contact dermatitis on both hands for approximately 5 to 6 years. Signs of dermatitis, such as rash, itching, crustiness, thin skin (steroids) when flexed hand would start bleeding where lines, were apparent over approximately 100 cm^2 of the right and left hands, respectively (all of palm and fingers). The individual applied a lotion comprising cytomodulin (SEQ ID NO: 1) at a concentration of about approximately 0.01% once per day at night. The amount applied was about 0.25 ml per hand. After 3-4 days healing of the dermatitis was apparent. In approximately two weeks the dermatitis was completely healed."}, "[2]": {"tested_on": "Mv-1-Lu mink lung epithelial cells", "experiment": "Inhibition of DNA synthesis (3H-thymidine incorporation) of Mv-1-Lu mink lung epithelial cells", "format": "cell-based", "conditions": "cytomodulin at the same concentration", "protocol": "The effect of TGF-β and cytomodulin were evaluated by determining the rate of [1H]thymidine incorporation into total acid-insoluble DNA and cell number. See generally, Sampath et al., J. Biol. Chem., 267, pp. 20352-20362 (1992). DNA synthesis rates were determined in triplicate cultures after 24 hour treatment with various concentrations (10^-9 M to 10^-6 M) of either TGF-β or cytomodulin (which was synthesized by the Merrifield method) by adding [methyl-3H]thymidine (2 uCi/ml, 80 Ci/mmol) for 6 hours before the termination of the culture. Incorporation was terminated by aspiration of the medium, and after washing three times with phosphate-buffered saline, the trichloroacetic acid (10%)-precipitated radioactive DNA was extracted with 1.0% (w/v) sodium dodecyl sulfate, 0.1 M NaOH and quantitated by liquid scintillation counting. For cell number determination, 1×10^5 cells were plated in flasks in MEM containing 10% FBS, and after 24 hours, the growth medium was replaced with serum-free medium containing various conceptions of TGF-β and cytomodulin. Triplicate cultures were harvested every 24 hours for the duration of 7 days, and the cell number was determined by counting cells released by trypsin digestion in a fixed volume hemacytometer.\nThe numbers shown at the various concentration are the ratio of the inhibition rate of the peptide being tested over the inhibition rate of cytomodulin (SEQ ID NO: 1) at the same concentration."}, "NRK-49 F fibroblasts": {"tested_on": "NRK-49 F fibroblasts", "experiment": "Growth and colony formation by NRK-49 F fibroblasts in soft agar", "format": "cell-based", "protocol": "The original assay for TGF-β, the ability to promote anchorage independent growth of normal fibroblasts is still one of the hallmarks of TGF-β activity. NRK49 F fibroblasts were grown at 37° C. in DEM supplemented with 10% fetal calf serum. […] To this, either 100 nM TGF-β (positive control) or 100 nM cytomodulin was added. NRK49 F fibroblasts (5×10^4 cells/ml) were mixed with 0.3% agar were plated on the bottom of 35 mm culture dishes. Colony formation was observed starting on day 3 of culture."}},
  "note": "Where a SMILES comes first, the peptide text is derived from it. Where no end group is shown, it is not given here.",
  "data": [
    {"compound": "CC(C)[C@H](NC(=O)[C@H](CC(N)=O)NC(=O)[C@H](C)N)C(=O)N[C@@H](C)C(=O)N[C@@H](CCC(=O)O)C(=O)N[C@@H](CC(N)=O)C(=O)N[C@@H](C)C(=O)O", "note": "[cytomodulin, Ala-Asn-Val-Ala-Glu-Asn-Ala] (H-ANVAENA-OH)", "values": [
      {"measurement": "adverse effects", "setting": "insect bite", "result": "no adverse effects"},
      {"measurement": "negative effects of application of the lotion", "setting": "[1]", "result": "No negative effects"}
    ]},
    {"compound": "A-N-V-A-E-K (ANVAEK) [SEQ ID NO: 15]", "values": [
      {"measurement": "Inhib by new peptide/Inhib by cytomodulin (3H-thymidine incorporation)", "setting": "[2]; 10 nM", "result": 0.80},
      {"measurement": "Inhib by new peptide/Inhib by cytomodulin (3H-thymidine incorporation)", "setting": "[2]; 100 nM", "result": 1.00}
    ]},
    {"compound": "L-I-A-D-A-K (LIADAK) [SEQ ID NO: 9]", "values": [
      {"measurement": "Inhib by new peptide/Inhib by cytomodulin (3H-thymidine incorporation)", "setting": "[2]; 1 nM", "result": 0.45},
      {"measurement": "Inhib by new peptide/Inhib by cytomodulin (3H-thymidine incorporation)", "setting": "[2]; 10 nM", "result": 0.87},
      {"measurement": "Inhib by new peptide/Inhib by cytomodulin (3H-thymidine incorporation)", "setting": "[2]; 100 nM", "result": 1.14},
      {"measurement": "Inhib by new peptide/Inhib by cytomodulin (3H-thymidine incorporation)", "setting": "[2]; 1000 nM", "result": 1.25}
    ]},
    {"compound": "L-I-A-E-A-A (LIAEAA) [SEQ ID NO: 11]", "values": [
      {"measurement": "Inhib by new peptide/Inhib by cytomodulin (3H-thymidine incorporation)", "setting": "[2]; 1 nM", "result": 1.16},
      {"measurement": "Inhib by new peptide/Inhib by cytomodulin (3H-thymidine incorporation)", "setting": "[2]; 10 nM", "result": 1.00},
      {"measurement": "Inhib by new peptide/Inhib by cytomodulin (3H-thymidine incorporation)", "setting": "[2]; 100 nM", "result": 1.17},
      {"measurement": "Inhib by new peptide/Inhib by cytomodulin (3H-thymidine incorporation)", "setting": "[2]; 1000 nM", "result": 1.85}
    ]},
    {"compound": "L-I-A-G-E-G (LIAGEG) [SEQ ID NO: 14]", "values": [
      {"measurement": "Inhib by new peptide/Inhib by cytomodulin (3H-thymidine incorporation)", "setting": "[2]; 1 nM", "result": 0.66},
      {"measurement": "Inhib by new peptide/Inhib by cytomodulin (3H-thymidine incorporation)", "setting": "[2]; 10 nM", "result": 0.85},
      {"measurement": "Inhib by new peptide/Inhib by cytomodulin (3H-thymidine incorporation)", "setting": "[2]; 100 nM", "result": 1.41},
      {"measurement": "Inhib by new peptide/Inhib by cytomodulin (3H-thymidine incorporation)", "setting": "[2]; 1000 nM", "result": 1.88}
    ]},
    {"compound": "L-I-A-G-G-E (LIAGGE) [SEQ ID NO: 13]", "values": [
      {"measurement": "Inhib by new peptide/Inhib by cytomodulin (3H-thymidine incorporation)", "setting": "[2]; 1 nM", "result": 1.10},
      {"measurement": "Inhib by new peptide/Inhib by cytomodulin (3H-thymidine incorporation)", "setting": "[2]; 10 nM", "result": 1.33},
      {"measurement": "Inhib by new peptide/Inhib by cytomodulin (3H-thymidine incorporation)", "setting": "[2]; 100 nM", "result": 1.45},
      {"measurement": "Inhib by new peptide/Inhib by cytomodulin (3H-thymidine incorporation)", "setting": "[2]; 1000 nM", "result": 1.90}
    ]},
    {"compound": "L-I-A-K-G-K (LIAKGK) [SEQ ID NO: 16]", "values": [
      {"measurement": "Inhib by new peptide/Inhib by cytomodulin (3H-thymidine incorporation)", "setting": "[2]; 10 nM", "result": 0.65},
      {"measurement": "Inhib by new peptide/Inhib by cytomodulin (3H-thymidine incorporation)", "setting": "[2]; 100 nM", "result": 0.67}
    ]},
    {"compound": "L-I-A-N-A-K (LIANAK) [SEQ ID NO: 10]", "values": [
      {"measurement": "Inhib by new peptide/Inhib by cytomodulin (3H-thymidine incorporation)", "setting": "[2]; 1 nM", "result": 1.70},
      {"measurement": "Inhib by new peptide/Inhib by cytomodulin (3H-thymidine incorporation)", "setting": "[2]; 10 nM", "result": 2.00},
      {"measurement": "Inhib by new peptide/Inhib by cytomodulin (3H-thymidine incorporation)", "setting": "[2]; 100 nM", "result": 1.43},
      {"measurement": "Inhib by new peptide/Inhib by cytomodulin (3H-thymidine incorporation)", "setting": "[2]; 1000 nM", "result": 3.05}
    ]},
    {"compound": "L-I-A-Q-A-K (LIAQAK) [SEQ ID NO: 12]", "values": [
      {"measurement": "Inhib by new peptide/Inhib by cytomodulin (3H-thymidine incorporation)", "setting": "[2]; 1 nM", "result": 0.90},
      {"measurement": "Inhib by new peptide/Inhib by cytomodulin (3H-thymidine incorporation)", "setting": "[2]; 10 nM", "result": 1.10},
      {"measurement": "Inhib by new peptide/Inhib by cytomodulin (3H-thymidine incorporation)", "setting": "[2]; 100 nM", "result": 0.80},
      {"measurement": "Inhib by new peptide/Inhib by cytomodulin (3H-thymidine incorporation)", "setting": "[2]; 1000 nM", "result": 1.56}
    ]},
    {"compound": "LIAEAK [L2]", "values": [
      {"measurement": "growth and colony formation of NRK-49 F cells in soft agar (in words)", "setting": "NRK-49 F fibroblasts", "result": "promoted the growth"}
    ]},
    {"compound": "LIAPEA [L1]", "values": [
      {"measurement": "growth and colony formation of NRK-49 F cells in soft agar (in words)", "setting": "NRK-49 F fibroblasts", "result": "promoted the growth"}
    ]}
  ]
}
